According to patent US7074789B2, “Kinase inhibitors” (Amgen Inc., priority 1999, dated 2006):

How the values were obtained:
Format in all cases: biochemical
Kdr = target: T1, Kdr (Homo sapiens, UniProt P35968); assay: Kinase inhibition assay (33P transfer), Kdr; details: Table 3; for IC50: read-out: KDR-1
T1 construct: Kinases are expressed as either kinase domains or full length constructs; made in house
In short: (§1)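 Recombinant kinase-domain or full-length fusion proteins (GST or His tag) served as enzyme. Substrate poly(Glu,Tyr) 4:1 or poly(Arg,Ser) 3:1 was bound to the plate; transferred 33P was read by liquid scintillation following acid washing.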

Zap-70 = target: T2, Zap-70 (Homo sapiens, UniProt P43403); assay: Kinase inhibition assay (33P transfer), Zap-70; details: Table 3; for IC50: read-out: Zap-1
T2 construct: Kinases are expressed as either kinase domains or full length constructs; made in house
T2 sequence (P43403 1-619): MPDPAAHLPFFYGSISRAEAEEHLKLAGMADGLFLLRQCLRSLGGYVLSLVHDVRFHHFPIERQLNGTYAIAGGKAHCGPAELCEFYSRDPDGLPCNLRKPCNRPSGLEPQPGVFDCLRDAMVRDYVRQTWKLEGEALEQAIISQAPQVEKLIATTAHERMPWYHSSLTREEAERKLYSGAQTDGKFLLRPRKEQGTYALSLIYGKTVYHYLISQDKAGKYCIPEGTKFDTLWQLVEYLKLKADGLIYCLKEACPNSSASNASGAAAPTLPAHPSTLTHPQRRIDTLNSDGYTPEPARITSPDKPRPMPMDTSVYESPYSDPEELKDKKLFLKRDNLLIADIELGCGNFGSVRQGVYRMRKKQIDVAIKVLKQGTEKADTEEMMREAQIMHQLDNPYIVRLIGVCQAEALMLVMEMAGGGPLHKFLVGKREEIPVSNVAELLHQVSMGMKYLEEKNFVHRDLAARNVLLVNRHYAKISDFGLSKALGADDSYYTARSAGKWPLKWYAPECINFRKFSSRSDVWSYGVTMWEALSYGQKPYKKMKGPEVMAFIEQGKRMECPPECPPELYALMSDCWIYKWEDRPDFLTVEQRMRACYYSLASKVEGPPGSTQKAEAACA
In short: as §1

AKT = target: T3, AKT (Homo sapiens, UniProt Q9Y243); assay: Kinase inhibition assay (33P transfer), AKT; details: Table 2, kinase inhibition class; for IC50: read-out: AKT3-1
T3 construct: Kinases are expressed as either kinase domains or full length constructs; made in house
In short: as §1

Itk = target: T4, Itk (Homo sapiens, UniProt Q08881); assay: Kinase inhibition assay (33P transfer), Itk; details: Table 3; for IC50: read-out: Itk-1
T4 construct: Kinases are expressed as either kinase domains or full length constructs; made in house
T4 sequence (Q08881 1-620): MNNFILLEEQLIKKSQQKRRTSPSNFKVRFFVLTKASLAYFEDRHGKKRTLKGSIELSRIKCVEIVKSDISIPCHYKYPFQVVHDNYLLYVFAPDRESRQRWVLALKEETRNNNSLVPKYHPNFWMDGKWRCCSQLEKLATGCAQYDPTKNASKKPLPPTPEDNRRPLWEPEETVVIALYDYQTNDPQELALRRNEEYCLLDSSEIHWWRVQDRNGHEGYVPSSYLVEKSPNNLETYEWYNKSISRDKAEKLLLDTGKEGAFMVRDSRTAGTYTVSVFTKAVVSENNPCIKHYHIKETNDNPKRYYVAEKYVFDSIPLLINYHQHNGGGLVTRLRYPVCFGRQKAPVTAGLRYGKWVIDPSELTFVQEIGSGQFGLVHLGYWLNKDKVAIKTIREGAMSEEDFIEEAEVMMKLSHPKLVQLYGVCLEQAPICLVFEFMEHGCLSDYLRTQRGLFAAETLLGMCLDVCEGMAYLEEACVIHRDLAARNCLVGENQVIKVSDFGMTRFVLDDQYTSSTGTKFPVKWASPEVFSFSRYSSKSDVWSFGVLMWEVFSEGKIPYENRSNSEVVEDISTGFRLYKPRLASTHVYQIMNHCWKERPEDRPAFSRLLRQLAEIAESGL
In short: (§2)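 Kinase domains or full-length enzymes, GST- or polyHis-tagged, were expressed in E. coli or baculovirus High Five cells and affinity-purified. Transfer of 33PO4 from ATP onto plate-bound poly(Glu,Tyr) 4:1 or poly(Arg,Ser) 3:1 was counted by liquid scintillation after a 0.5% phosphoric acid wash. IC50 = concentration halving incorporation.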

EGFR = target: T5, EGFR (Homo sapiens, UniProt P00533); assay: Kinase inhibition assay (33P transfer), EGFR; details: Table 2, kinase inhibition class; for IC50: read-out: EGFR-1
T5 construct: Kinases are expressed as either kinase domains or full length constructs; made in house
In short: as §2

c-Met = target: T6, c-Met (Homo sapiens, UniProt P08581); assay: Kinase inhibition assay (33P transfer), c-Met; details: Table 2, kinase inhibition class; for IC50: read-out: Met-1
T6 construct: Kinases are expressed as either kinase domains or full length constructs; made in house
In short: as §2

EPHB4 = target: T7, EPHB4 (Homo sapiens, UniProt P54760); assay: Kinase inhibition assay (33P transfer), EPHB4; details: for IC50: read-out: EPHB4-1
T7 construct: Kinases are expressed as either kinase domains or full length constructs; made in house
T7 sequence (P54760 16-987): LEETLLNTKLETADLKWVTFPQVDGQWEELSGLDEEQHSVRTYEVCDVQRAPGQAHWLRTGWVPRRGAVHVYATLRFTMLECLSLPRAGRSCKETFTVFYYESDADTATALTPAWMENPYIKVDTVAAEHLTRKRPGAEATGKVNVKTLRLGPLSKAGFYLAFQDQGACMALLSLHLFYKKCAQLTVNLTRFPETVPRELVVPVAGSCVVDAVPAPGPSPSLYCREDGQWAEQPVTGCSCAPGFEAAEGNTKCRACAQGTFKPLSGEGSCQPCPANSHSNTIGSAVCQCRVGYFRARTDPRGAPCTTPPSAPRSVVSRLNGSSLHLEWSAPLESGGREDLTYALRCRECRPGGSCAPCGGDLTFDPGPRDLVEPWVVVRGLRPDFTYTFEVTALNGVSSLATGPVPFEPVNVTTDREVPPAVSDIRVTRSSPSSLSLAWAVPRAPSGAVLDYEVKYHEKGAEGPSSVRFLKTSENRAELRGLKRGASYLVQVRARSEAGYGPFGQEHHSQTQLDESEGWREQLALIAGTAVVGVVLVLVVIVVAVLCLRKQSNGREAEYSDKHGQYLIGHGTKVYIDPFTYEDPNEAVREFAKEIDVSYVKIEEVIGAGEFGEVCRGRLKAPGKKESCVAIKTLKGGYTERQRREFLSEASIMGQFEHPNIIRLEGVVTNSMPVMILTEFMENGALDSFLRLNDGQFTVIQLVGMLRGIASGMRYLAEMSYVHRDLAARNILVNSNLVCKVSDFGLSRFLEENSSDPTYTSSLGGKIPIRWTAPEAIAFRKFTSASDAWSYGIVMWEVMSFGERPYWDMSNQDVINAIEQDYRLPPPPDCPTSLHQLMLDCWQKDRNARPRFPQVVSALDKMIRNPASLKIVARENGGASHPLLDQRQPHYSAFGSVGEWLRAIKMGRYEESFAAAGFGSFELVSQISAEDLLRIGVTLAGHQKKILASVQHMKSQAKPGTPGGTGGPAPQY

Lck = target: T8, Lck (Homo sapiens, UniProt P06239); assay: Kinase inhibition assay (33P transfer), Lck; details: Table 3; for IC50: read-out: Lck-1
T8 construct: Kinases are expressed as either kinase domains or full length constructs; made in house
In short: as §1

IGFR-1 = target: T9, IGFR-1 (Homo sapiens, UniProt P08069); assay: Kinase inhibition assay (33P transfer), IGFR-1; details: Table 2, kinase inhibition class
T9 construct: Kinases are expressed as either kinase domains or full length constructs; made in house
T9 sequence (P08069 31-1367): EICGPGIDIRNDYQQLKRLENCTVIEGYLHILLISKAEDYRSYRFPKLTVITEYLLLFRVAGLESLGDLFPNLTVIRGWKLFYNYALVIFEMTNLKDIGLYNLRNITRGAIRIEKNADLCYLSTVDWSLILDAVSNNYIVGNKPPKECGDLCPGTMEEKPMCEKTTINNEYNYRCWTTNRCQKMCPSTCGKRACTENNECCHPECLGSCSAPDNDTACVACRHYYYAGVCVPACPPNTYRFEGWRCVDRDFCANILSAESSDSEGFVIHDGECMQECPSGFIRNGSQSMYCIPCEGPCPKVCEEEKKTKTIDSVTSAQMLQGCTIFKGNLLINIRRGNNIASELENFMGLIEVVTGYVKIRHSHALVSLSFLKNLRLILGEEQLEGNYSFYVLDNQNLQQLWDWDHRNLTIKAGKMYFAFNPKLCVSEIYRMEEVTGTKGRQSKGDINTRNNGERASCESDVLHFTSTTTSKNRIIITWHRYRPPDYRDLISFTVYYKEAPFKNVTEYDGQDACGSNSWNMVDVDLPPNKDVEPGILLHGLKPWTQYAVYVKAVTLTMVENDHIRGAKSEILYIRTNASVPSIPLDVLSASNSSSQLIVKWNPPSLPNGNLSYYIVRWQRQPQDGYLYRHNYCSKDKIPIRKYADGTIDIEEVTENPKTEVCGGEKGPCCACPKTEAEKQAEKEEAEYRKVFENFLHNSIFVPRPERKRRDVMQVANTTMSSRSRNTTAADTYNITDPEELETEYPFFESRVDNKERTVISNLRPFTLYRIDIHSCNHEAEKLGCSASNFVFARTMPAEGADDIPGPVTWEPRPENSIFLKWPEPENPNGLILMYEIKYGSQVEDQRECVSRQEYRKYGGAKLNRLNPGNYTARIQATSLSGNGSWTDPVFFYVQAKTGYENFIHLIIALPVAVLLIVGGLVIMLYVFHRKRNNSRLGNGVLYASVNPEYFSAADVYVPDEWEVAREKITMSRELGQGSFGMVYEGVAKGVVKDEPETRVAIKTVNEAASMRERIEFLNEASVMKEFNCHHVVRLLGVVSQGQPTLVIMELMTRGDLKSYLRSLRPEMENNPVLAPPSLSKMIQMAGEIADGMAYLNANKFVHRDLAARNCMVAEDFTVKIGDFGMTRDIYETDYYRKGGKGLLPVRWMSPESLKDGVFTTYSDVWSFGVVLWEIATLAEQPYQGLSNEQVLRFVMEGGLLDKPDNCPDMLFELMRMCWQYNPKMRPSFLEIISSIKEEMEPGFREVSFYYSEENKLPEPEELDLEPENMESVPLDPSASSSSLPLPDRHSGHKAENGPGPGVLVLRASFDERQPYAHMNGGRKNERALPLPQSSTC

T8 sequence (P06239 whole entry, species assumed, the tested form may be a part): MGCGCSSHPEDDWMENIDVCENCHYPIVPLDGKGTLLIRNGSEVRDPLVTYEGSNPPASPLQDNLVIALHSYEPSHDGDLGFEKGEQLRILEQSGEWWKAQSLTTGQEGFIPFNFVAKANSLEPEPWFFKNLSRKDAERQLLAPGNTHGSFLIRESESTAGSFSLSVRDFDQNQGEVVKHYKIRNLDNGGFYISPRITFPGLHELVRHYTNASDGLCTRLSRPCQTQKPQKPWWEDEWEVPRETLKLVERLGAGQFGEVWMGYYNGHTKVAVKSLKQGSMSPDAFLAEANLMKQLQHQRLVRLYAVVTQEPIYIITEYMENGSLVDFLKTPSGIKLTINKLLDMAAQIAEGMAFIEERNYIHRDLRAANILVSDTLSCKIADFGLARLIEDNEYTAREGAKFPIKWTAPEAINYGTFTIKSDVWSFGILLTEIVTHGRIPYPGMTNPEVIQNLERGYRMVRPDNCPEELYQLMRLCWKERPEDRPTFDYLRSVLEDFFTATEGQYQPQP
T3 sequence (Q9Y243 whole entry, the tested form may be a part): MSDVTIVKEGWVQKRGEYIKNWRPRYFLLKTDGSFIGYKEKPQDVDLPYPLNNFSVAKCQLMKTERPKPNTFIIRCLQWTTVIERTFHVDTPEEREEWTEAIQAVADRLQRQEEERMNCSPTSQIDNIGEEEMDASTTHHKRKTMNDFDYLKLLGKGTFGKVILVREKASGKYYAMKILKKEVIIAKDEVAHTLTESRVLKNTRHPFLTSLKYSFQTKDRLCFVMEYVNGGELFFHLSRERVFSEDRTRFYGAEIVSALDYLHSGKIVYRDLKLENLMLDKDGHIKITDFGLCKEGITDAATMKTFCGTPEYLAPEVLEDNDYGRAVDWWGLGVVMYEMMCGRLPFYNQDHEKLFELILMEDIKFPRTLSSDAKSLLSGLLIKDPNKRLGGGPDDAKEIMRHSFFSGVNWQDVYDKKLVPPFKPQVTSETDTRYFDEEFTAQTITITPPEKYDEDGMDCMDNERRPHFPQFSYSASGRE
T5 sequence (P00533 25-1210, species assumed): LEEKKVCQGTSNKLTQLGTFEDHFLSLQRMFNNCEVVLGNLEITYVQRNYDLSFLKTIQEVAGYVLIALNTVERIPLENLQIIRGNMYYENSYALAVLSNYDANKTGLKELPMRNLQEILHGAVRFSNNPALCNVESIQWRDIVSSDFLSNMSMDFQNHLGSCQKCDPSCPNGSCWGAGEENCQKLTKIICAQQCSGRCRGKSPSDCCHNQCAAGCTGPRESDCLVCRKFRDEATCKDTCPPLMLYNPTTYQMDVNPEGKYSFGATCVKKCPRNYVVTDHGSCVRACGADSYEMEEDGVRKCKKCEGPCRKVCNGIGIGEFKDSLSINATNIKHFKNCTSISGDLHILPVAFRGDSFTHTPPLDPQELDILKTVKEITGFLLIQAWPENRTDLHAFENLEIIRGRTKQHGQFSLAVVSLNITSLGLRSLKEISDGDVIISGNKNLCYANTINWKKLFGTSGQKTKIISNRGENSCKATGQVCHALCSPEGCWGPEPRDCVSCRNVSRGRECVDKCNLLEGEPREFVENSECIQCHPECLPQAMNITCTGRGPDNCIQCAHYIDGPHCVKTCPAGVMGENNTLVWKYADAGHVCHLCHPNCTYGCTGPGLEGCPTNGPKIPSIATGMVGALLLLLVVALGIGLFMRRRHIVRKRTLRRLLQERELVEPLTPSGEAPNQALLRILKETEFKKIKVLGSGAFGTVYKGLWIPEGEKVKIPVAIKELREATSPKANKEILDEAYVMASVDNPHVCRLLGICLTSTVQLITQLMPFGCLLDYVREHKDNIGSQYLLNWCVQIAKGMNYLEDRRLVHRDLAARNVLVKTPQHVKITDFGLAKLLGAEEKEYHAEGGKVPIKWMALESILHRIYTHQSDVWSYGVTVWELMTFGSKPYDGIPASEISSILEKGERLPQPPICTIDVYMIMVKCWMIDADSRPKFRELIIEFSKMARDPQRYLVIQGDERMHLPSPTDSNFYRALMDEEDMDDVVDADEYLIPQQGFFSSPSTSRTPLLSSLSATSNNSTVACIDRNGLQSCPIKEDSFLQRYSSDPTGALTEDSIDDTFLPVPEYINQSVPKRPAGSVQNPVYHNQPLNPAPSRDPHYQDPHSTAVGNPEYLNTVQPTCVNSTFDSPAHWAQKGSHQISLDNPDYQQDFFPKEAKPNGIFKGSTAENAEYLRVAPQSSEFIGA
T1 sequence (P35968 20-1356, species assumed): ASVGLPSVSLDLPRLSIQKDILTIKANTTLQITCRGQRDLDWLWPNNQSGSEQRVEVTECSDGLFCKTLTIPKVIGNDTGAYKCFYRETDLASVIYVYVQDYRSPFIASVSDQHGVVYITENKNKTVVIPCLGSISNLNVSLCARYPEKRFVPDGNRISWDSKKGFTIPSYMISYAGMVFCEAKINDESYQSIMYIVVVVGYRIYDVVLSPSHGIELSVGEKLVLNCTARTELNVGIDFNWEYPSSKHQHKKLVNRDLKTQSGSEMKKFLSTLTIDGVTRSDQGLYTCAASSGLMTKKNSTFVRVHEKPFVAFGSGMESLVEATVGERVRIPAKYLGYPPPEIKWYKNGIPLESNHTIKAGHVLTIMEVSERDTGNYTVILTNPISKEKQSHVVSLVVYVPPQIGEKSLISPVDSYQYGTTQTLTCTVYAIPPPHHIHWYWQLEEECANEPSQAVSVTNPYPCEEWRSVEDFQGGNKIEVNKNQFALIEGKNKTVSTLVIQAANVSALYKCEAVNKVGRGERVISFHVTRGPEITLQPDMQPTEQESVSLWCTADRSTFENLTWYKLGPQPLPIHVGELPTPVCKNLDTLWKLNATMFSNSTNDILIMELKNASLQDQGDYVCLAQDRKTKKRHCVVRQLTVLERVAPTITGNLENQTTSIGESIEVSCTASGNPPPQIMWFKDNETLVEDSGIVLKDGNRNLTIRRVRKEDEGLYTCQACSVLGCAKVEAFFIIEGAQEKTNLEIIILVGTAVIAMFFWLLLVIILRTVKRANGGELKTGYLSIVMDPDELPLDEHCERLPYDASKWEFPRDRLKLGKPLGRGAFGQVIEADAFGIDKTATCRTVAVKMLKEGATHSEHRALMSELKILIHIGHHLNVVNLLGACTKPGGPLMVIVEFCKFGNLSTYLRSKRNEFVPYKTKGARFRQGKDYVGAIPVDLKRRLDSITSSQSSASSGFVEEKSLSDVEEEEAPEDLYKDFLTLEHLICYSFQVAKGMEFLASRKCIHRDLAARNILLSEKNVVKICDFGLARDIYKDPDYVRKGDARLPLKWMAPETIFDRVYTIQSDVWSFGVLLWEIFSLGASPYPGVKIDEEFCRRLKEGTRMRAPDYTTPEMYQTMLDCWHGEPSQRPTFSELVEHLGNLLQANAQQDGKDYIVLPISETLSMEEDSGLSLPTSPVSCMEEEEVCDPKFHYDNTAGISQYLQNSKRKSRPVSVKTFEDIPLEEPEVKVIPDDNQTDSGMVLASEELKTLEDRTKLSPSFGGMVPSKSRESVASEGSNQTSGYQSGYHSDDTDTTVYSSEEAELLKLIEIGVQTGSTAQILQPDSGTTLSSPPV

In the case of `COc1cc(C)c(Nc2ncnc(Nc3cc(-c4ccco4)n[nH]3)n2)cc1OC` [Compound 338], the IC50 (Kdr) is reported as 1.02 to 6.1 µM, the IC50 (Zap-70) is reported as > 11.4 µM and the IC50 (AKT) is reported as > 11.4 µM. The IC50 (Itk) was > 11.4 µM, the IC50 (EGFR) was 1.02 to 6.1 µM and the IC50 (c-Met) was 1.02 to 6.1 µM. The IC50 (EPHB4) was 6.1 to 8.9 µM, the IC50 (Lck) was 1.02 to 6.1 µM and the IC50 (IGFR-1) was < 1.02 µM.
In the case of `COc1cc(NC(=O)Nc2ncnc(-c3ccncc3)n2)cc(OC)c1OC` [Compound 1118], the KDR-1 (Kdr) is reported as “E (E>4.5 ug/mL)”, the Zap-1 (Zap-70) is reported as “E (E>4.5 ug/mL)” and the AKT3-1 (AKT) is reported as “E (E>4.5 ug/mL)”. The Itk-1 (Itk) was “E (E>4.5 ug/mL)”, the EGFR-1 (EGFR) was “B (B>0.4 and <2.4 ug/mL)” and the Met-1 (c-Met) was “E (E>4.5 ug/mL)”. The EPHB4-1 (EPHB4) was “E (E>4.5 ug/mL)”, the Lck-1 (Lck) was “E (E>4.5 ug/mL)” and the IGFR-1 (IGFR-1) was “E (E>4.5 ug/mL)”.
`COc1cc(Nc2ncnc(Nc3ccccn3)n2)cc(OC)c1OC` [Compound 40] was tested, and the IC50 (Kdr) was > 12.7 µM, the IC50 (Zap-70) was > 12.7 µM and the IC50 (AKT) was > 12.7 µM. For the same compound, the IC50 (Itk) was > 12.7 µM, the IC50 (EGFR) was > 12.7 µM and the IC50 (c-Met) was > 12.7 µM. The IC50 (EPHB4) was > 12.7 µM, the IC50 (Lck) was > 12.7 µM and the IC50 (IGFR-1) was > 12.7 µM.
`COC(=O)c1cc(Nc2ncnc(Nc3cc(-c4ccco4)n[nH]3)n2)cc(C(=O)OC)c1` [Compound 343] was tested, and the IC50 (Kdr) was 0.919 to 5.51 µM, the IC50 (Zap-70) was > 10.3 µM and the IC50 (AKT) was > 10.3 µM. For the same compound, the IC50 (Itk) was > 10.3 µM, the IC50 (EGFR) was > 10.3 µM and the IC50 (c-Met) was 8.04 to 10.3 µM. For the same compound, the IC50 (EPHB4) was 0.919 to 5.51 µM, the IC50 (Lck) was > 10.3 µM and the IC50 (IGFR-1) was 0.919 to 5.51 µM.
With `COc1cc(Nc2ncnc(-c3ccc(C)cc3)n2)cc(OC)c1OC` [Compound 221] the IC50 (Kdr) was 1.14 to 6.81 µM, the IC50 (Zap-70) was > 12.8 µM and the IC50 (AKT) was > 12.8 µM. The IC50 (Itk) was > 12.8 µM, the IC50 (EGFR) was > 12.8 µM and the IC50 (c-Met) was > 12.8 µM. The IC50 (EPHB4) was 1.14 to 6.81 µM, the IC50 (Lck) was > 12.8 µM and the IC50 (IGFR-1) was < 1.14 µM.
